# In patent publication US10940139B2, “Compounds that interact with the Ras superfamily for the treatment of cancers, inflammatory diseases, rasopathies, and fibrotic disease” (Shy Therapeutics LLC, priority 2017, dated 2021):
# Where two headings read alike, the source gives them in different places.
# Key:
# Test in all cases: Ras GTP binding domain inhibition assay (labeled GTP)
# KRas wild type = KRas wild type (Homo sapiens (Human), UniProt P01116)
# Method in brief: (§1)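 Labelled-GTP binding: plate-captured His-KRas protein was pre-exposed to compound for 3 h at room temperature (single 20 μM point or dilution series, 1% DMSO, Tris pH 7.5/MgCl2/DTT buffer). Cy3- or Cy5-GTP was then added for 45 min. Washed wells were read for retained fluorescence to give inhibition or IC50.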
# [1] = biological target: KRas G12D/Q61H double mutant (Homo sapiens (Human), UniProt P01116, G12D/Q61H)
# Method in brief: as §1
# KRas G12C mutant = KRas G12C mutant (Homo sapiens (Human), UniProt P01116, G12C)
# Method in brief: as §1
# KRas G12D mutant protein = KRas G12D mutant protein (Homo sapiens (Human), UniProt P01116, G12D)
# [2] = 20 μM, read-out: KRas wild type, % Inh.
# [3] = 20 μM, read-out: KRas G12D Q61H % Inh.
# [4] = 20 μM, read-out: KRas G12C % Inh.
# [5] = 20 μM, read-out: KRas G12D % Inh.
# [6] = 20 μM compound, read-out: % Inhibition at 20 μM KRas wild type
# [7] = 20 μM compound, read-out: % Inhibition at 20 μM KRas G12D Q61H
# [8] = 20 μM compound, read-out: % Inhibition at 20 μM KRas G12C
# [9] = 20 μM compound, read-out: % Inhibition at 20 μM KRas G12D
# [10] = 20 μM compound, KRas wild type, read-out: % Inhibition at 20 μM of K-Ras mutant and wild-type protein, KRas wild type
# [11] = 20 μM compound, KRas G12C, read-out: % Inhibition at 20 μM of K-Ras mutant and wild-type protein, KRas G12C
# [12] = 20 μM compound, KRas G12D, read-out: % Inhibition at 20 μM of K-Ras mutant and wild-type protein, KRas G12D
# Chain of KRas wild type (P01116-2 other isoform, or with tags, fused parts or gaps): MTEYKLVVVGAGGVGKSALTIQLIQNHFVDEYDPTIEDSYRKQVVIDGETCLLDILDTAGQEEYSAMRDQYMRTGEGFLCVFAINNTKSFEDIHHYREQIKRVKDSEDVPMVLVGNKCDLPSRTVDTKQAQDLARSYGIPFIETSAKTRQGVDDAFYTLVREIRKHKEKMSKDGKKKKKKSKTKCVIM
# Chain of KRas G12D/Q61H double mutant (P01116-2 other isoform, or with tags, fused parts or gaps G12D/Q61H): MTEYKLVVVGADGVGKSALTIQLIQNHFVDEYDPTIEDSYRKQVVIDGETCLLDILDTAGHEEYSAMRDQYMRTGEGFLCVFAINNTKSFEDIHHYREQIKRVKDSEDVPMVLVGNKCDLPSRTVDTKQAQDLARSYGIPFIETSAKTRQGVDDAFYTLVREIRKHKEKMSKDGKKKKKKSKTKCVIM
# Chain of KRas G12D mutant protein (P01116-2 other isoform, or with tags, fused parts or gaps G12D): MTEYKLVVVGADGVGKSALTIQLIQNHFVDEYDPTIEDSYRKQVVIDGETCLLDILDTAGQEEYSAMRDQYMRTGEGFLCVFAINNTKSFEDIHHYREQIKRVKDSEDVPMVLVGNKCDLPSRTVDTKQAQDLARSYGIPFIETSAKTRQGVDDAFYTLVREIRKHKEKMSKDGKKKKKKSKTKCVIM
# Chain of KRas G12C mutant (P01116-2 other isoform, or with tags, fused parts or gaps G12C): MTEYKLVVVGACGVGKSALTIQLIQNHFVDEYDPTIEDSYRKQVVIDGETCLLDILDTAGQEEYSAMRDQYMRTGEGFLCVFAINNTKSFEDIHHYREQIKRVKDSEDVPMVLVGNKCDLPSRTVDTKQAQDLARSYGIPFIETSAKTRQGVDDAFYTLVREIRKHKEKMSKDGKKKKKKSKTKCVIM
inhibition at 20 µM (KRas wild type; [2]),"inhibition at 20 µM [1, 3]",inhibition at 20 µM (KRas G12C mutant; [4]),inhibition at 20 µM (KRas G12D mutant protein; [5]),inhibition at 20 µM (KRas wild type; [6]),"inhibition at 20 µM [1, 7]",inhibition at 20 µM (KRas G12C mutant; [8]),inhibition at 20 µM (KRas G12D mutant protein; [9]),Compound,further results
25 to 50%,51 to 75%,25 to 50%,51 to 75%,–,–,–,–,NC(=O)C1(CNc2nc(-c3ccccn3)nc3c2CCC3)CCCC1 [drawing 2608],–
–,–,–,–,76 to 100%,25 to 50%,25 to 50%,51 to 75%,O=C(c1csc2c(O)nc(-c3ccccn3)nc12)N1CCOC(c2ccccc2F)C1 (stereo not shown),–
–,–,–,–,25 to 50%,25 to 50%,25 to 50%,25 to 50%,COc1ccc(CCNC(=O)c2csc3nc(-c4ccccn4)nc(N4CCN(C)CC4)c23)cn1,–
25 to 50%,51 to 75%,1 to 25%,51 to 75%,–,–,–,–,CC(O)CNc1nc(-c2ccccn2)nc2scc(-c3ccccc3)c12 (stereo not shown) [drawing 2607],–
–,–,–,–,1 to 25%,25 to 50%,25 to 50%,25 to 50%,O=C(c1csc2c(O)nc(-c3ccccn3)nc12)N1CCN(c2ccccc2O)CC1,–
1 to 25%,51 to 75%,1 to 25%,25 to 50%,–,–,–,–,CN(Cc1nnc(-c2ccccc2Cl)o1)Cc1ccccc1C(F)(F)F [drawing 2482],–
25 to 50%,51 to 75%,1 to 25%,51 to 75%,–,–,–,–,O=C(Nc1nnc(-c2ccccn2)[nH]1)C1CC(=O)N(Cc2cccc(C(F)(F)F)c2)C1 (stereo not shown) [drawing 2547],–
25 to 50%,51 to 75%,51 to 75%,51 to 75%,–,–,–,–,COc1cccc(C(=O)Nc2nc(-c3ccccn3)cs2)c1 [drawing 2580],–
–,–,–,–,51 to 75%,51 to 75%,25 to 50%,51 to 75%,Oc1nc(-c2ccccn2)nc2c1ncn2-c1ccccc1 [drawing 2697],–
–,–,–,–,51 to 75%,51 to 75%,25 to 50%,51 to 75%,O=C(c1csc2c(O)nc(-c3ccccn3)nc12)N1CCN(c2ccncc2)CC1 [drawing 2681],–
–,–,–,–,1 to 25%,25 to 50%,25 to 50%,51 to 75%,COCCC(C)Nc1nc(-c2ccccn2)nc2sccc12 (stereo not shown) [drawing 2709],–
25 to 50%,51 to 75%,51 to 75%,25 to 50%,–,–,–,–,COc1ccc(CCC(=O)N2CCCc3c(O)nc(-c4ccccn4)nc32)cc1 [drawing 2640],–
–,–,–,–,51 to 75%,51 to 75%,51 to 75%,51 to 75%,O=C(c1csc2c(O)nc(-c3ccccn3)nc12)N1CCOC(c2ccc(F)cc2)C1 (stereo not shown) [drawing 2743],–
25 to 50%,76 to 100%,51 to 75%,51 to 75%,–,–,–,–,O=C(c1ccc2ccccc2n1)N1CCCc2c(O)nc(-c3ccccn3)nc21 [drawing 2642],–
51 to 75%,76 to 100%,25 to 50%,76 to 100%,–,–,–,–,O=C(Nc1nnc(-c2ccccn2)[nH]1)c1ccc2ccccc2n1 [drawing 2472],–
25 to 50%,51 to 75%,51 to 75%,51 to 75%,–,–,–,–,Cc1sc2nc(-c3ccccn3)nc(NCCCO)c2c1-c1ccccc1 [drawing 2610],–
25 to 50%,51 to 75%,25 to 50%,51 to 75%,–,–,–,–,O=c1nc(-c2ccccn2)[nH]c2scc(-c3ccccc3Cl)c12 [drawing 2585],–
–,–,–,–,51 to 75%,51 to 75%,51 to 75%,51 to 75%,O=C(c1csc2c(O)nc(-c3ccccn3)nc12)N1CCC(N2CCCC2=O)CC1 [drawing 2679],–
25 to 50%,51 to 75%,25 to 50%,25 to 50%,–,–,–,–,COc1ccc(CCC(=O)Nc2nnc(-c3ccccn3)[nH]2)cc1 [drawing 2469],–
51 to 75%,51 to 75%,51 to 75%,51 to 75%,–,–,–,–,O=C(Nc1nc(-c2ccccn2)cs1)c1ccncc1 [drawing 2578],–
–,–,–,–,25 to 50%,51 to 75%,25 to 50%,25 to 50%,O=C(c1ccccn1)N1CCCc2c(O)nc(-c3ccccn3)nc21 [drawing 2655],–

inhibition at 20 µM (KRas wild type; [2]),"inhibition at 20 µM [1, 3]",inhibition at 20 µM (KRas G12C mutant; [4]),inhibition at 20 µM (KRas G12D mutant protein; [5]),inhibition at 20 µM (KRas wild type; [6]),"inhibition at 20 µM [1, 7]",inhibition at 20 µM (KRas G12C mutant; [8]),inhibition at 20 µM (KRas G12D mutant protein; [9]),Compound,further results
1 to 25%,51 to 75%,25 to 50%,51 to 75%,–,–,–,–,COc1ccc(OCc2nc(CNCCc3nnc4n3CCC4)cs2)cc1 [drawing 2565],–
–,–,–,–,51 to 75%,25 to 50%,25 to 50%,51 to 75%,O=C(c1ccc(=O)[nH]n1)N1CCCc2c(O)nc(-c3ccccn3)nc21 [drawing 2646],–
25 to 50%,76 to 100%,25 to 50%,51 to 75%,–,–,–,–,Cc1cc2c(=O)nc(-c3cc(OCC(F)F)ccn3)[nH]c2s1 [drawing 2593],–
–,–,–,–,25 to 50%,76 to 100%,76 to 100%,51 to 75%,CC1(N)CCN(C(=O)c2csc3c(O)nc(-c4ccccn4)nc23)CC1 [drawing 2684],–
–,–,–,–,51 to 75%,25 to 50%,25 to 50%,51 to 75%,CC1(O)CCN(C(=O)c2csc3c(O)nc(-c4ccccn4)nc23)CC1 [drawing 2683],–
–,–,–,–,76 to 100%,51 to 75%,25 to 50%,51 to 75%,O=C(NCCc1cccnc1)c1csc2c(O)nc(-c3ccccn3)nc12 [drawing 2689],–
–,–,–,–,51 to 75%,51 to 75%,51 to 75%,51 to 75%,Cc1cnc(-c2ccccn2)nc1NC(=O)COCc1ccncc1,–
25 to 50%,51 to 75%,25 to 50%,51 to 75%,–,–,–,–,Cc1cccc(CN(Cc2ccccn2)Cc2nccn2C)c1 [drawing 2613],–
–,–,–,–,1 to 25%,25 to 50%,25 to 50%,25 to 50%,COCCCCNC(=O)c1csc2nc(-c3ccccn3)nc(N3CCN(C)CC3)c12 [drawing 2739],–
1 to 25%,51 to 75%,25 to 50%,1 to 25%,–,–,–,–,CS(=O)(=O)Cc1ccc(C(=O)Nc2nc(-c3ccccn3)cs2)cc1 [drawing 2572],–
51 to 75%,76 to 100%,25 to 50%,51 to 75%,–,–,–,–,CS(=O)(=O)N1CCCc2cc(C(=O)Nc3nnc(-c4ccccn4)[nH]3)ccc21 [drawing 2561],–
25 to 50%,51 to 75%,25 to 50%,51 to 75%,–,–,–,–,O=c1nc(-c2ccccn2)[nH]c2c1CCC2 [drawing 2591],–
25 to 50%,51 to 75%,25 to 50%,51 to 75%,–,–,–,–,COCC(C)Nc1nc(-c2ccccn2)nc2sc(C)c(-c3ccccc3)c12 (stereo not shown) [drawing 2604],–
–,–,–,–,25 to 50%,76 to 100%,51 to 75%,51 to 75%,O=C(c1csc2c(O)nc(-c3ccccn3)nc12)N(CCO)CCOCCO [drawing 2687],–
1 to 25%,25 to 50%,25 to 50%,1 to 25%,–,–,–,–,COC(=O)c1cccc(CN2CCC(CSc3ccccc3)C2)c1C#N (stereo not shown) [drawing 2611],–
25 to 50%,51 to 75%,51 to 75%,51 to 75%,–,–,–,–,O=C(Nc1nc(-c2ccccn2)cs1)c1cccnc1 [drawing 2576],–
–,–,–,–,–,–,–,–,Cn1ccnc1-c1nc(O)c2sc(-c3ccccc3)c(-c3cccc(C(F)(F)F)c3)c2n1 [drawing 3592],inhibition at 20 µM (KRas wild type; [10]): 1 to 25%; inhibition at 20 µM (KRas G12C mutant; [11]): 0%; inhibition at 20 µM (KRas G12D mutant protein; [12]): 0%
–,–,–,–,–,–,–,–,COCCNc1nc(-c2nccn2C)nc2sc(-c3ccncc3)c(-c3ccccc3)c12 [drawing 3582],inhibition at 20 µM (KRas wild type; [10]): 76 to 100%; inhibition at 20 µM (KRas G12C mutant; [11]): 51 to 75%; inhibition at 20 µM (KRas G12D mutant protein; [12]): 51 to 75%
–,–,–,–,–,–,–,–,Cn1ccnc1-c1nc(O)c2scc(-c3ccccc3)c2n1 [drawing 3614],inhibition at 20 µM (KRas wild type; [10]): 25 to 50%; inhibition at 20 µM (KRas G12C mutant; [11]): 25 to 50%; inhibition at 20 µM (KRas G12D mutant protein; [12]): 51 to 75%
–,–,–,–,–,–,–,–,CC(O)CNc1nc(-c2nccn2C)nc2sc(-c3ccccc3)c(-c3ccccc3)c12 (stereo not shown) [drawing 3569],inhibition at 20 µM (KRas wild type; [10]): 1 to 25%; inhibition at 20 µM (KRas G12C mutant; [11]): 1 to 25%; inhibition at 20 µM (KRas G12D mutant protein; [12]): 1 to 25%

Compound,inhibition at 20 µM (KRas wild type; [2]),"inhibition at 20 µM [1, 3]",inhibition at 20 µM (KRas G12C mutant; [4]),inhibition at 20 µM (KRas G12D mutant protein; [5]),inhibition at 20 µM (KRas wild type; [6]),"inhibition at 20 µM [1, 7]",inhibition at 20 µM (KRas G12C mutant; [8]),inhibition at 20 µM (KRas G12D mutant protein; [9]),further results
O=C(c1csc2c(O)nc(-c3ccccn3)nc12)N1CCN(c2ccccc2)CC1 [drawing 2680],–,–,–,–,51 to 75%,76 to 100%,25 to 50%,51 to 75%,"IC50 ([1]; serial dilution, read-out: KRas G12D Q61H (classes E-H, IC50)): 5 to 10 µM"
O=C(Nc1nc(-c2ccccn2)cs1)c1ccccn1 [drawing 2573],51 to 75%,76 to 100%,51 to 75%,51 to 75%,–,–,–,–,–
